Data on ten compounds can be found in patent US7550451B2, “Progesterone receptor modulators with increased antigonadotropic activity for female birth control and hormone replacement therapy” (Bayer Schering Pharma AG, priority 2002, dated 2009).

One experiment concerns the target T1, Progesterone receptor (Oryctolagus cuniculus, UniProt P06186).
T1 construct: Uterus cytosol of the estradiol-primed rabbit; from tissue; host or cells: uterus cytosol of estradiol-primed rabbit
T1 sequence (P06186 1-930): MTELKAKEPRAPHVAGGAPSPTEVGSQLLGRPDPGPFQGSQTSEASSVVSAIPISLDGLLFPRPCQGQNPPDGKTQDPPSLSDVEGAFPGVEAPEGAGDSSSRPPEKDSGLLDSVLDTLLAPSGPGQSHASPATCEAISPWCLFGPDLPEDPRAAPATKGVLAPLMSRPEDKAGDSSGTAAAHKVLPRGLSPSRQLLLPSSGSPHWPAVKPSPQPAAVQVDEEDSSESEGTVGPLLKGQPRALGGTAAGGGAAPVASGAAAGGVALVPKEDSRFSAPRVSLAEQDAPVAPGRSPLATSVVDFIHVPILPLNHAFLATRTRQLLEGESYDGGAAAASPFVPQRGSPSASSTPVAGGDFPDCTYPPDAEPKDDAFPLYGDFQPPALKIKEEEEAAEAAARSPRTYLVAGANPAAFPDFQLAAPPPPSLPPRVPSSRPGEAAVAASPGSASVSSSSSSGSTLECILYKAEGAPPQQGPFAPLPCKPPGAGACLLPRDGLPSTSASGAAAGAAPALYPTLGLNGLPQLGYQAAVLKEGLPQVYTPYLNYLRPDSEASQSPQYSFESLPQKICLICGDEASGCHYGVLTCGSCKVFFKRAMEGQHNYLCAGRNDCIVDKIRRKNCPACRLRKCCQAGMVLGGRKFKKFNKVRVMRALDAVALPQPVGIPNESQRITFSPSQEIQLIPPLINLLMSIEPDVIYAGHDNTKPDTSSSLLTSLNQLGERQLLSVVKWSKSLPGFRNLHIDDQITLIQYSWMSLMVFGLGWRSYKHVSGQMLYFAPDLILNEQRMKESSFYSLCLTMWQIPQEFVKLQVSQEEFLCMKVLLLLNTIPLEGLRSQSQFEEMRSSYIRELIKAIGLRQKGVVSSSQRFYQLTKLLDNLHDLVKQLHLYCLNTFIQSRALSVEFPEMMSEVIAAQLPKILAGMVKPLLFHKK
Nature of the experiment: Receptor binding affinity, progesterone receptor (competitive binding, 3H-ORG 2058). Conditions: Progesterone = 100%; uterus cytosol of estradiol-primed rabbit. The method, then: (§1) The receptor binding affinity was determined by competitive binding of a specifically binding ^3H-labeled hormone (tracer) and the compound to be tested on receptors in the cytosol from animal target organs. In this case, receptor saturation and reaction equilibrium were sought.
(§2) The tracers and increasing concentrations of the compound to be tested (competitor) were co-incubated with the receptor-containing cytosol fraction at 0-4° C. over 18 hours. After separation of the unbonded tracer with carbon-dextran suspension, the receptor-bonded tracer portion was measured for each concentration, and the IC50 was determined from the concentration sequence. As a quotient of the IC50 values of the reference substance and the compound to be tested (×100%), the relative molar binding affinity (RBA) was calculated (RBA of the reference substance=100%).
Uterus cytosol of the estradiol-primed rabbit; homogenized in TED buffer (20 mmol of Tris/HCl, pH 7.4; 1 mmol of ethylenediamine tetraacetate, 2 mmol of dithiothreitol) with 250 mmol of saccharose; stored at −30° C. Tracer: ^3H-ORG 2058, 5 nmol; reference substance: progesterone.

A further experiment deals with T2, Glucocorticoid receptor (Rattus norvegicus, UniProt P06536).
T2 construct: Thymus cytosol of the adrenalectomized rat; from tissue; host or cells: thymus cytosol of adrenalectomized rat
T2 sequence (P06536 1-795): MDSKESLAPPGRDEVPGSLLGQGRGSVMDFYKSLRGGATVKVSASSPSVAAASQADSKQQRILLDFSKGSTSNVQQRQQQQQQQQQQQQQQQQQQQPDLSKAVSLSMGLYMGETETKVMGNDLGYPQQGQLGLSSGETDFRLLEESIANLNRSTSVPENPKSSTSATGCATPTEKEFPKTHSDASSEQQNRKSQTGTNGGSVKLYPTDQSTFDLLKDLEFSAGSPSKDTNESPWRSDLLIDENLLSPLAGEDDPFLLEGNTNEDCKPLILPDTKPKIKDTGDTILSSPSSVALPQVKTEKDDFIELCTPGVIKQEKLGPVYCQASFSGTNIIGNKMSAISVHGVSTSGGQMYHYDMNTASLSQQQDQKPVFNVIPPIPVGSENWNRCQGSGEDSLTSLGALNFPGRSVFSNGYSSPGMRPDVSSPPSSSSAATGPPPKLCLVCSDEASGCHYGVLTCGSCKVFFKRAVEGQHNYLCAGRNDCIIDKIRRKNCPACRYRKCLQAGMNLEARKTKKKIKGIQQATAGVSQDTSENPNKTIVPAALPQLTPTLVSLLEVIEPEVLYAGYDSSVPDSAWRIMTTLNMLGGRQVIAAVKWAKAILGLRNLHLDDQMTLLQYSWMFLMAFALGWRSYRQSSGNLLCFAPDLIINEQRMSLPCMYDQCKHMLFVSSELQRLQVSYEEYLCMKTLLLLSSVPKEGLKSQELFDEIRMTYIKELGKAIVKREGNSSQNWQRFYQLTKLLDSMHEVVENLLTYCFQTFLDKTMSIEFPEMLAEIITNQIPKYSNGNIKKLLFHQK
Briefly: Receptor binding affinity, glucocorticoid receptor (competitive binding, 3H-dexamethasone). Conditions: Dexamethasone = 100%; thymus cytosol of adrenalectomized rat. The method, then: as §1, §2
Thymus cytosol of the adrenalectomized rat, thymi stored at −30° C.; buffer: TED. Tracer: ^3H-Dexamethasone, 20 nmol; reference substance: dexamethasone.

For the next experiment, the target named is T3, Androgen receptor (Rattus norvegicus, UniProt P15207).
T3 construct: Prostate cytosol of the castrated rat; from tissue; host or cells: prostate cytosol of castrated rat
T3 sequence (P15207 1-902): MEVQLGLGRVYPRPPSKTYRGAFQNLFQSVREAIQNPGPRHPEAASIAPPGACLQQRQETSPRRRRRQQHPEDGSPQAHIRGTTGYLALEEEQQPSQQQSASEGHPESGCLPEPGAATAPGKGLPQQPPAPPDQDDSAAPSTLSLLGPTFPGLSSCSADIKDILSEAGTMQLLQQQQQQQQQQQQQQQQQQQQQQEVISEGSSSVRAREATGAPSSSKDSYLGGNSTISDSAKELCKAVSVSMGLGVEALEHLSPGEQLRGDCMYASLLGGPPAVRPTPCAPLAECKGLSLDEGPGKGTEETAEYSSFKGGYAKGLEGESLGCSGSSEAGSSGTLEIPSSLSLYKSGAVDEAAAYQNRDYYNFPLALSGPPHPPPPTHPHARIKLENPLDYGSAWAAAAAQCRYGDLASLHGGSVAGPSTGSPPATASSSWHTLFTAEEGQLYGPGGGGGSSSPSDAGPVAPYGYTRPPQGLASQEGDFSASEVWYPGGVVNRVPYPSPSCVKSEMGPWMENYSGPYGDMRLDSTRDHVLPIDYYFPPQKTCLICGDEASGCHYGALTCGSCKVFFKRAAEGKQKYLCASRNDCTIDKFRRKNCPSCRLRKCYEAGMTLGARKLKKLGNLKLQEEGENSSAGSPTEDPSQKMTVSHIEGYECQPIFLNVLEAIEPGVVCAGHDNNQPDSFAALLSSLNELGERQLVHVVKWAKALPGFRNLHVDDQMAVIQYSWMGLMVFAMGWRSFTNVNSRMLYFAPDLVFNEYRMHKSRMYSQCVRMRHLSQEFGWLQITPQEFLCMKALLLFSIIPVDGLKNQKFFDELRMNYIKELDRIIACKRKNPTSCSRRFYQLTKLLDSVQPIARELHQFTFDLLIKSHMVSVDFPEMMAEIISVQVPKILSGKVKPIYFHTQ
Nature of the experiment: Receptor binding affinity, androgen receptor (competitive binding, 3H-metribolone). As to conditions: prostate cytosol of castrated rat; for AR relative molar binding affinity (RBA) a) against RU 1881: reference RU 1881 (metribolone); for AR relative molar binding affinity (RBA) b) against dihydrotestosterone (DHT): reference dihydrotestosterone. The method, then: as §1, §2
Prostate cytosol of the castrated rat; prostates stored at −30° C.; buffer: TED with 10% glycerol as well as 2 μmol of triamcinolone acetonide. Tracer: ^3H-metribolone 4 nmol; reference substances: metribolone (RU 1881) or 5α-dihydrotestosterone.

Turning to “4-(4′-Bromo-17β-methoxy-3-oxoestra-4,9-dien-11β-yl)benzaldehyde-1(E)-oxime [Example 7]”, the “PR relative molar binding affinity (RBA)” value at Progesterone receptor is given as 110%. Besides, the “GR relative molar binding affinity (RBA)” value at Glucocorticoid receptor is on record as 0.69%. Further, on Androgen receptor, the “AR relative molar binding affinity (RBA) a) against RU 1881” value is “a) 8.7%” and the “AR relative molar binding affinity (RBA) b) against dihydrotestosterone (DHT)” value (“AR relative molar binding affinity … (DHT)” below) is recorded as “b) 13.2%”.

As for `CC(=O)OC1CCC2C3CCC4=CC(=O)CCC4=C3C(c3ccc(C=NO)cc3)CC12C` (stereo not drawn) [Example 3, 4-(17β-Acetoxy-3-oxoestra-4,9-dien-11β-yl)benzaldehyde-1-(E)-oxime], the “PR relative molar binding affinity (RBA)” value on Progesterone receptor was determined as 20%. For the same compound, on Glucocorticoid receptor, the “GR relative molar binding affinity (RBA)” value was 12%.

Regarding `CCNC(=O)O[C@H]1CC[C@H]2[C@@H]3CCC4=CC(=O)CCC4=C3[C@@H](c3ccc(/C=N/O)cc3)C[C@]12C` [Example 4, 4-[17β-(N-Ethylamino)carbonyloxy-3-oxoestra-4,9-dien-11β-yl]benzaldehyde-1(E)-oxime], at Progesterone receptor, the “PR relative molar binding affinity (RBA)” value was 13%. In addition, on Glucocorticoid receptor, the “GR relative molar binding affinity (RBA)” value is listed as 11%. On Androgen receptor, the “AR relative molar binding affinity (RBA) a) against RU 1881” value is reported as “a) 2.9%” and the “AR relative molar binding affinity … (DHT)” value is on record as “b) 4.5%”.

Take `CC12CC(c3ccc(C=NO)cc3)C3=C4CCC(=O)C(Br)=C4CCC3C1CCC2(O)C(F)(F)F` (stereo not drawn) [Example 8, 4-(4′-Bromo-17β-hydroxy-17α-trifluoromethyl-3-oxoestra-4,9-dien-11β-yl)benzaldehyde-1(E)-oxime]: on Progesterone receptor, the “PR relative molar binding affinity (RBA)” value was 87%. Moreover, the “GR relative molar binding affinity (RBA)” value on Glucocorticoid receptor is 1.8%. Further, at Androgen receptor, the “AR relative molar binding affinity (RBA) a) against RU 1881” value was “a) 7.8%” and the “AR relative molar binding affinity … (DHT)” value is recorded as “b) 11.8%”.

Regarding `CCNC(=O)O/N=C/c1ccc([C@H]2C[C@@]3(C)[C@@H](CC[C@]3(C)O)[C@@H]3CCC4=CC(=O)CCC4=C32)cc1` [Example 9, 4-[17β-Hydroxy-17α-methyl-3-oxoestra-4,9-dien-11β-yl]benzaldehyde-1-(E)-[O-(ethylamino)-carbonyl]oxime], at Progesterone receptor, the “PR relative molar binding affinity (RBA)” value is recorded as 161%. Further, the “GR relative molar binding affinity (RBA)” value on Glucocorticoid receptor worked out at 25%. In addition, on Androgen receptor, the “AR relative molar binding affinity (RBA) a) against RU 1881” value was “a) 15%” and the “AR relative molar binding affinity … (DHT)” value is listed as “b) 23%”.

For the compound `CC12CC(c3ccc(C=NO)cc3)C3=C4CCC(=O)C=C4CCC3C1CCC2(O)CBr` (stereo not drawn) [Example 10, 4-(17α-Bromomethyl-17β-hydroxy-3-oxoestra-4,9-dien-11β-yl)benzaldehyde-1(E)-oxime], at Progesterone receptor, the “PR relative molar binding affinity (RBA)” value came to 21%. Besides, at Glucocorticoid receptor, the “GR relative molar binding affinity (RBA)” value was 3%. Also, at Androgen receptor, the “AR relative molar binding affinity (RBA) a) against RU 1881” value is recorded as “a) 0.6%” and the “AR relative molar binding affinity … (DHT)” value is recorded as “b) 0.9%”.

As to `CCNC(=O)O/N=C/c1ccc([C@H]2C[C@]3(C)[C@@H](O)CC[C@H]3[C@@H]3CCC4=CC(=O)CCC4=C32)cc1` [Example 11, 4-[17β-Hydroxy-3-oxoestra-4,9-dien-11β-yl]benzaldehyde-1-(E)-[O-(ethylamino)-carbonyl]oxime], the “PR relative molar binding affinity (RBA)” value at Progesterone receptor turned out to be 34%. The “GR relative molar binding affinity (RBA)” value on Glucocorticoid receptor is 10%. Further, at Androgen receptor, the “AR relative molar binding affinity (RBA) a) against RU 1881” value is on record as “a) 10%” and the “AR relative molar binding affinity … (DHT)” value is listed as “b) 15%”.

Turning to `CC12CC(c3ccc(C=NO)cc3)C3=C4CCC(=O)C=C4CCC3C1C=CC2O` (stereo not drawn) [Example 12, 4-(17β-Hydroxy-3-oxoestra-4,9,15-trien-11β-yl)benzaldehyde-1(E)-oxime], the “PR relative molar binding affinity (RBA)” value at Progesterone receptor turned out to be 38%. For the same compound, the “GR relative molar binding affinity (RBA)” value on Glucocorticoid receptor came out at 5%. In addition, at Androgen receptor, the “AR relative molar binding affinity (RBA) a) against RU 1881” value is given as “a) 22%” and the “AR relative molar binding affinity … (DHT)” value was “b) 34%”.

As to `CC(=O)O[C@H]1CC[C@H]2[C@@H]3CCC4=C(Br)C(=O)CCC4=C3[C@@H](c3ccc(/C=N/O)cc3)C[C@]12C` [Example 13, 4-(17β-Acetoxy-4′-bromo-3-oxoestra-4,9-dien-11β-yl)benzaldehyde-1-(E)oxime], the “PR relative molar binding affinity (RBA)” value at Progesterone receptor is on record as 45%. Moreover, the “GR relative molar binding affinity (RBA)” value on Glucocorticoid receptor came out at 0.35%. Moreover, on Androgen receptor, the “AR relative molar binding affinity (RBA) a) against RU 1881” value was “a) 6%” and the “AR relative molar binding affinity … (DHT)” value is on record as “b) 10%”.

As for `CC(=O)O/N=C/c1ccc([C@H]2C[C@]3(C)[C@@H](OC(C)=O)CC[C@H]3[C@@H]3CCC4=C(Br)C(=O)CCC4=C32)cc1` [Example 14, 4-(17β-Acetoxy-4′-bromo-3-oxoestra-4,9-dien-11β-yl)benzaldehyde-1-(E)-O-acetyloxime], the “PR relative molar binding affinity (RBA)” value on Progesterone receptor was determined as 23%. For the same compound, the “GR relative molar binding affinity (RBA)” value on Glucocorticoid receptor was determined as 0.3%. Also, at Androgen receptor, the “AR relative molar binding affinity (RBA) a) against RU 1881” value is “a) 6%” and the “AR relative molar binding affinity … (DHT)” value is “b) 10%”.
